Data reported in PMC12192727, “Strategies to Develop Na,K-ATPase-α4 Inhibitors as Male Contraceptives” (International Journal of Molecular Sciences, 2025).
Like-named read-outs stand apart in the source and are kept apart here.

What was measured:
mouse sperm = assay: Sperm motility after intraperitoneal administration to mice; format: in vivo; conditions: intraperitoneal 40 mg/kg for three days
Method: To determine whether our compounds had in vivo activity, we tested the effect of 45 after intraperitoneal administration to mice. Compound 45 was injected at a dose of 40 mg/kg for three days. This procedure is based on our previous protocol used for ouabain derivatives. After treatment for 3 days, the animals were sacrificed, sperm was isolated from the cauda epididymis, and sperm motility was assessed using CASA. Compound 45 inhibited total sperm motility by approximately 60% (Figure 9A).
Compound 45 was administered to mice by intraperitoneal injection at a dose of 40 mg/kg of body weight for three days. This protocol was used based on our previous results. At day 3 of treatment, the animals were sacrificed, and sperm was collected from the caudal section of the epididymis. Sperm was incubated under non-capacitating and capacitating conditions, and total and hyperactive sperm motility was determined using CASA.
Figure 9 Effect of compound 45 on total (A) and hyperactive (B) sperm motility in mice in vivo. 45 was administered via intraperitoneal injection at a dosage of 40 mg/kg of body weight for 3 days. Total and hyperactive sperm motility was assessed using sperm from the cauda epididymis. Hyperactive motility was evaluated after incubating the cells in a medium that supports sperm capacitation for 1 h. Sperm motility was analyzed using CASA. […]

[1] = LogD, 1-octanol/phosphate buffer pH 7.4; format: physicochemical
mouse hepatocytes = assay: Metabolic stability in mouse hepatocytes; format: in vitro ADME
Method: (§1) The in vitro metabolic half-life (t1/2) is calculated using the slope of the log−linear regression from the percentage of the parent compound remaining versus the time relationship (κ). The experimental details are reported in the Supporting Information (Tables S6 and S7).

[2] = Metabolic stability in mouse hepatocytes; format: in vitro ADME; conditions: mouse hepatocytes
Method: as §1

hERG channel [3] = biological target: T1, hERG channel (Homo sapiens, UniProt Q12809)
T1 sequence (Q12809 whole entry): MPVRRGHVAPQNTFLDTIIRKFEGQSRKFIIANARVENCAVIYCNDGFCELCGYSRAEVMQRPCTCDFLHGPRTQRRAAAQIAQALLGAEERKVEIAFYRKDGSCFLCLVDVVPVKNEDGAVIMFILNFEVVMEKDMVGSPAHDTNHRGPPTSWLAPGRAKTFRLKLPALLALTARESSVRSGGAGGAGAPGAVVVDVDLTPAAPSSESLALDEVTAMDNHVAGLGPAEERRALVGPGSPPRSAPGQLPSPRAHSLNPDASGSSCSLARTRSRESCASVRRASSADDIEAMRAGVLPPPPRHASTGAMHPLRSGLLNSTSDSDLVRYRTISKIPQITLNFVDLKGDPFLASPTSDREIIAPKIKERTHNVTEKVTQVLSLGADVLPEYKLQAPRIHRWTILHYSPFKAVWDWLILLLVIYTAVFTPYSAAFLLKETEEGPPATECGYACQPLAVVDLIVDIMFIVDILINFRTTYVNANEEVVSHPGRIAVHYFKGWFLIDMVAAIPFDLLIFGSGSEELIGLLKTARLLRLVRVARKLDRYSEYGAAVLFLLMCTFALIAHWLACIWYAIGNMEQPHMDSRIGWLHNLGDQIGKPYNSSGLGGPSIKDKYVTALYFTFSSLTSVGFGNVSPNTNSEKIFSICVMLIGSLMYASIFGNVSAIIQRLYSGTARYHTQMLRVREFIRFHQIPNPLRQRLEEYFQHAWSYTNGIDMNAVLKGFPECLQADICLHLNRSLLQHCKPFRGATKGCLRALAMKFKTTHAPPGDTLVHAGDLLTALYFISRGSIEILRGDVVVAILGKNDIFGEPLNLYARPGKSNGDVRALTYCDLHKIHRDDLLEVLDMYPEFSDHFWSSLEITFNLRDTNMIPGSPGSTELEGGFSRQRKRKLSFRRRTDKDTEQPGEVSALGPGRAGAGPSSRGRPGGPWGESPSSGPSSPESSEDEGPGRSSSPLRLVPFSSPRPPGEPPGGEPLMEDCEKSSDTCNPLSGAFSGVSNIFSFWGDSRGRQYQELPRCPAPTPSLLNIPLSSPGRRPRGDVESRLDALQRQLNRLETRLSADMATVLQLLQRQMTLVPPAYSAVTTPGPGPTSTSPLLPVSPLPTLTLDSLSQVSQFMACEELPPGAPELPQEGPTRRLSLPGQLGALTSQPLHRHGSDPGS

hERG channel [4] = biological target: T1, hERG channel; assay: hERG inhibition manual patch-clamp assay (HEK293)
[5] = In vivo pharmacokinetic study; design: species or system CD-1 mice; conditions: for Plasma concentration (mean): BLOQ = 0.5 ng/mL; for MRT inf: read-out: MRTInf_obs
Method: Male CD-1 mice (approximately 6–8 weeks old, weighing 20–25 g, supplied by Vital River, Beijing, China) were used for the pharmacokinetic studies. Each mouse (n = 2) received either a bolus intravenous injection via the tail vein or oral gavage administration of the test compound. The formulation consisted of 20% HP-b-CD in PBS (pH 7.4), administered at a dose level of 10 mg/kg. The intravenous dose volume was 5 mL/kg, while the oral dose volume was 10 mL/kg. […] At the end of the study, the mice were euthanized by the inhalation of rising carbon dioxide concentrations. Samples were centrifuged at 4000× g for 5 min at 4 °C to obtain plasma. The plasma samples were stored at −75 ± 15 °C before analysis. Plasma samples were analyzed using the LC/MS/MS method. WinNonlin (PhoenixTM, version 8.3) software was employed for pharmacokinetic analysis calculations. The experimental details are reported in the Supporting Information. […]
Snap Shot PK of 45 in CD1-Mice
Formulations IV 20% HP-b-CD in PBS
(1 picture or pasted object on this page, not shown here)
Dosing Solutions: IV 2 mg/mL
IV&PO Plasma: 0 .5, 1, 3, and 5 h
Blood Sampling @ post dose
Mobile Phase A 5% Acetonitrile in Water (0.1%Formic acid)
Quantification Internal Standard Method
10 uL of plasma sample + 5 uL of blank solution +
200 uL of acetonitrile for PPE (protein precipitation
1. BLOQ = 0.5 ng/mL for plasma
3. PK parameters were estimated by non-compartmental model using WinNonlin 8.3
4. The bioavailability (F%) was calculated as following: […]

MDCK cell permeability = conditions: dog, MDCK
MDCK cells = assay: MDCK cell permeability; conditions: MDCK cell line, 0.5% BSA
[6] = male, CD-1, mouse, plasma, CD1 mice, IV 10 mg/kg
[7] = male, CD-1, mouse, plasma, CD1 mice, PO 10 mg/kg
[8] = male, CD-1, mouse, plasma, IV 10 mg/kg
[9] = male, CD-1, mouse, plasma, PO 10 mg/kg
[10] = male, CD-1, mouse, CD1 mice, IV 10 mg/kg, plasma

CC12CCC(=O)C=C1CCCC2n1cc(-c2ccccc2)nn1 (stereo not drawn) [Compound 45, 4a-Methyl-5-(4-phenyl-1H-1,2,3-triazol-1-yl)-4,4a,5,6,7,8-hexahydronaphthalen-2(3H)-one]
Hyperactive sperm motility in vivo (mouse sperm; capacitating medium 1 h): reduced | Inhibition of total sperm motility in vivo (mouse sperm; cauda epididymis sperm, CASA): approximately 60% | logD [1]: 2.66 | Remaining Percentage (%) (mouse hepatocytes; mouse boiled hepatocytes, 0 min): 100.00% | Remaining Percentage (%) (mouse hepatocytes; mouse boiled hepatocytes, 15 min): 104.93% | Remaining Percentage (%) (mouse hepatocytes; mouse boiled hepatocytes, 30 min): 101.77% | Remaining Percentage (%) (mouse hepatocytes; mouse boiled hepatocytes, 60 min): 101.78% | Remaining Percentage (%) (mouse hepatocytes; mouse boiled hepatocytes, 90 min): 101.42% | Remaining Percentage (%) (mouse hepatocytes; mouse boiled hepatocytes, 120 min): 100.86% | Hepatic Extraction Ratio (E) (mouse hepatocytes; mouse hepatocytes): 0.91 | Predicted hepatic CL (mouse hepatocytes; mouse hepatocytes): 81.91 mL/min/kg | Remaining Percentage (%) (mouse hepatocytes; mouse hepatocytes, 0 min): 100.00% | Remaining Percentage (%) (mouse hepatocytes; mouse hepatocytes, 15 min): 54.16% | Remaining Percentage (%) (mouse hepatocytes; mouse hepatocytes, 30 min): 31.17% | Remaining Percentage (%) (mouse hepatocytes; mouse hepatocytes, 60 min): 10.30% | Remaining Percentage (%) (mouse hepatocytes; mouse hepatocytes, 90 min): 3.01% | Remaining Percentage (%) (mouse hepatocytes; mouse hepatocytes, 120 min): 0.80% | Metabolic Stability in Hepatocytes (60 min), compound remaining (mouse hepatocytes; mouse, 60 min): 10% | hepatocyte CLint at 1 μM ([2]; read-out: In vitro Clint): 77.1 µL/min/1e6 cells | CLint scaled at 1 µM ([2]; read-out: Scale-up Clint): 911 mL/min/kg | half-life at 1 µM ([2]; mouse, hepatocytes, read-out: In vitro T1/2): 18 min | hERG IC50 (hERG channel [3]): weak inhibitor | IC50 (hERG channel [4]): > 30 µM | AUC_%Extrap_obs ([5]; CD1 mice, IV 10 mg/kg): 0.250% | AUClast/D ([5]; CD1 mice, IV 10 mg/kg): 55.9 kg·ng·h/mL/mg | Vss_obs ([5]; CD1 mice, IV 10 mg/kg (supplement)): 1.10 L/kg | AUC_%Extrap_obs ([5]; CD1 mice, PO 10 mg/kg): 3.43% | AUClast/D ([5]; CD1 mice, PO 10 mg/kg): 7.43 kg·ng·h/mL/mg | F% (oral bioavailability) ([5]; CD1 mice, PO 10 mg/kg, 10 mg/kg): 13.7% | Plasma concentration (mean) ([5]; IV 10 mg/kg, 3 h): BLOQ | Plasma concentration (mean) ([5]; IV 10 mg/kg, 5 h): BLOQ | bioavailability ([5]; male, CD-1, mouse, plasma, po, 10 mg/kg, CD1 mice, PO 10 mg/kg, read-out: F% (oral bioavailability)): 14% | AUC(0-inf) [5, 6]: 561 ng·h/mL | AUC(0-t) [5, 6]: 559 ng·h/mL | half-life [5, 6]: 7.5 min | Vd ([5]; male, CD-1, mouse, plasma, CD1 mice, IV 10 mg/kg (Table 5), read-out: Vss): 1.1 L/kg | MRT inf [5, 6]: 3.7 min | AUC(0-inf) [5, 7]: 77 ng·h/mL | AUC(0-t) [5, 7]: 74.3 ng·h/mL | Tmax [5, 7]: 30 min | half-life [5, 7]: 64.2 min | MRT inf [5, 7]: 67.8 min | concentration at 0.5 h [5, 8]: 124 ng/mL | concentration at 1 h [5, 8]: 7.76 ng/mL | concentration at 0.5 h [5, 9]: 79.7 ng/mL | concentration at 1 h [5, 9]: 22.8 ng/mL | concentration at 3 h ([5]; male, CD-1, mouse, plasma, PO 10 mg/kg, 3 h): 2.14 ng/mL | concentration at 5 h ([5]; male, CD-1, mouse, plasma, PO 10 mg/kg, 5 h): 1.71 ng/mL | clearance ([5]; male, CD-1, mouse, plasma, mice, intravenous 10 mg/kg, read-out: clearance rate): 297 mL/min/kg | C0 [5, 10]: 1980 ng/mL | Cmax [5, 10]: 124 ng/mL | Cmax ([5]; male, CD-1, mouse, CD1 mice, PO 10 mg/kg, plasma): 79.7 ng/mL

C[C@]12CC[C@H]3[C@@H](CC=C4C[C@@H](O)CC[C@@]43C)[C@@H]1CC[C@@H]2c1cn(Cc2ccccc2)nn1 [Compound 13, (3S,8S,9S,10R,13S,14S,17S)-17-(1-Benzyl-1H-1,2,3-triazol-4-yl)-10,13-dimethyl-2,3,4,7,8,9,10,11,12,13,14,15,16,17-tetradecahydro-1H-cyclopenta[a]phenanthren-3-ol]
Papp B→A (MDCK cell permeability): 0.78 ×10⁻⁶ cm/s | efflux ratio (MDCK cell permeability): 1.24 | Papp A→B (MDCK cell permeability; Papp (A-B), MDCK cells, BSA 0% for controls, 0.5% for 13): 0.63 ×10⁻⁶ cm/s | Papp A→B (MDCK cell permeability; Permeability Papp (A-B), MDCK cell line, 0.5% BSA): 0.6 ×10⁻⁶ cm/s | Permeability Papp (A-B) (MDCK cells): poor
